{
  "source": "patent EP0929544B1",
  "about": "“TRICYCLIC ANTITUMOR COMPOUNDS BEING FARNESYL PROTEIN TRANSFERASE INHIBITORS” (SCHERING CORPORATION, priority 1996, dated 1998)",
  "target": "T1, Farnesyl protein transferase (FPT) (Rattus norvegicus, UniProt Q02293+Q04631)",
  "T1 construct": "Farnesyl protein transferase (FPT) was partially purified from rat brain; from tissue; host or cells: rat brain",
  "T1 sequence (Q02293 whole entry, one chain of several)": "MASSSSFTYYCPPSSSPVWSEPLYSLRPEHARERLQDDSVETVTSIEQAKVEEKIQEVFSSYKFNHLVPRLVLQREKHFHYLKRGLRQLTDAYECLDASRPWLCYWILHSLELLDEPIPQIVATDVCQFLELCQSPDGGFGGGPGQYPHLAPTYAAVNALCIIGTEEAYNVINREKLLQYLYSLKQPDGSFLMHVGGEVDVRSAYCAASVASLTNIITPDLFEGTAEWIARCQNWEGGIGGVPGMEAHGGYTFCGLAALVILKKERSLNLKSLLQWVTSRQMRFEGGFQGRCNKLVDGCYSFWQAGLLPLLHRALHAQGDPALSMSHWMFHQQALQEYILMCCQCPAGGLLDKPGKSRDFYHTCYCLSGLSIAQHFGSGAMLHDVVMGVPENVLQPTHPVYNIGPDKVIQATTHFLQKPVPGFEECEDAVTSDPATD",
  "test": "In vitro enzyme assay: inhibition of farnesyl protein transferase (transfer of [3H]farnesyl from [3H]farnesyl pyrophosphate to Ras-CVLS)",
  "format": "biochemical",
  "description": "1. In vitro enzyme assays: Inhibition of farnesyl protein transferase and geranylgeranyl protein transferase.\nFarnesyl protein transferase (FPT) was partially purified from rat brain by ammonium sulfate fractionation followed by Q-Sepharose (Pharmacia, Inc.) anion exchange chromatography essentially as described by Yokoyama et al (Yokoyama, K., et al., (1991), A protein geranylgeranyltransferase from bovine brain: Implications for protein prenylation specificity, Proc. Natl. Acad. Sci USA 88: 5302-5306, the disclosure of which is incorporated herein by reference thereto). Human famesyl protein transferase was also expressed in E. coli, using cDNA clones encoding both the a and b subunits. The methods used were similar to those published (Omer, C. et al., (1993), Characterization of recombinant human farnesyl protein transferase: Cloning, expression, famesyl diphosphate binding, and functional homology with yeast prenyl-protein transferases, Biochemistry 32:5167-5176). Human famesyl protein transferase was partially-purified from the soluble protein fraction of E. coli as described above. […] Two forms of val^12-Ha-Ras protein were prepared as substrates for these enzymes, differing in their carboxy terminal sequence. One form terminated in cysteine-valine-leucine-serine (Ras-CVLS) the other in cystein-valine-leucine-leucine (Ras-CVLL). Ras-CVLS is a substrate for the famesyl protein transferase while Ras-CVLL is a substrate for geranylgeranyl protein transferase I. The cDNAs encoding these proteins were constructed so that the proteins contain an amino-terminal extension of 6 histidine residues. Both proteins were expressed in Escherichia coli and purified using metal chelate affinity chromatography. The radiolabelled isoprenyl pyrophosphate substrates, [^3H]farnesyl pyrophosphate and [^3H]geranylgeranyl pyrophosphate, were purchased from DuPont/New England Nuclear.\nSeveral methods for measuring famesyl protein transferase activity have been described (Reiss et al 1990, Cell 62: 81; Schaber et al 1990, J. Biol. Chem. 265: 14701; Manne et al 1990, PNAS 87: 7541; and Barbacid & Manne 1993, U.S. Patent No. 5,185,248). […] The reaction was allowed to proceed for 30 minutes at room temperature and then stopped with 0.5 ml of 4% sodium dodecyl sulfate (SDS) followed by 0.5 ml of cold 30% TCA. Samples were allowed to sit on ice for 45 minutes and precipitated Ras protein was then collected on GF/C filter paper mats using a Brandel cell harvester. Filter mats were washed once with 6% TCA, 2% SDS and radioactivity was measured in a Wallac 1204 Betaplate BS liquid scintillation counter. Percent inhibition was calculated relative to the DMSO vehicle control.",
  "key": {"[1]": {"settings": "read-out: FPT IC50, FPT INHIBITION"}, "[2]": {"settings": "FPT INHIBITION, read-out: FPT IC50"}},
  "note": "Read-outs that look alike come from different tables or passages of the source.",
  "data": [
    {"smiles": "O=C(O)CCC(=O)N1CCC([C@H]2c3ncc(Br)cc3CCc3cc(Cl)cc(Br)c32)CC1", "note": "[Example 49, (+)-SODIUM 4-(3,10-DIBROMO-8-CHLORO-6,11-DIHYDRO-5H-BENZO[5,6]CYCLO-HEPTA[1,2-b]PYRIDIN-11(R)-YL)-GAMMA-OXO-1-PI[…]]", "values": [
      {"measurement": "IC50", "setting": "[1]", "value": 270, "unit": "nM"}
    ]},
    {"smiles": "O=C(NCCCC(=O)N1CCC(C2c3ncc(Br)cc3CCc3cc(Cl)cc(Cl)c32)CC1)c1ccncc1", "note": "(single isomer, unassigned) [Example 24]", "values": [
      {"measurement": "FPT inhibition (percent inhibition)", "setting": "@ 0.06 µg/µL", "value": 20, "unit": "%@ 0.06 µg/µL"}
    ]},
    {"smiles": "NC(=O)CCC(=O)N1CCC(C2c3ncc(Br)cc3CCc3cc(Cl)cc(Cl)c32)CC1", "note": "(single isomer, unassigned) [Example 12]", "values": [
      {"measurement": "IC50", "setting": "[2]", "value": 61, "unit": "nM"}
    ]},
    {"smiles": "O=C(CCCN1C(=O)c2ccccc2C1=O)N1CCC(C2c3ncc(Br)cc3CCc3cc(Cl)cc(Br)c32)CC1", "note": "(single isomer, unassigned; (+)) [Example 32, (+)-4-(3,10-DIBROMO-8-CHLORO-6,11-DIHYDRO-5H-BENZO[5,6]CYCLO-HEPTA[1,2-b]PYRIDIN-11-YL)-1-[4-(1,3-DIHYDRO-1,3-DIOXO-2H-ISOINDOL-2-YL)-1-OXOBUTYL)PIPERIDINE]", "values": [
      {"measurement": "inhibition at 0.088 µM", "setting": "@ 88 nM, read-out: FPT inhibition (percent inhibition)", "value": 12, "unit": "%"}
    ]},
    {"smiles": "CC(C)(C)OC(=O)NCCCC(=O)N1CCC(C2c3ncc(Br)cc3CCc3cc(Cl)cc(Cl)c32)CC1", "note": "(single isomer, unassigned) [Example 25]", "values": [
      {"measurement": "inhibition at 0.33 µM", "setting": "@ 330nM, read-out: FPT inhibition (percent inhibition)", "value": 47, "unit": "%"}
    ]},
    {"smiles": "COC(=O)CCC(=O)N1CCC([C@H]2c3ncc(Br)cc3CCc3cc(Cl)cc(Br)c32)CC1", "note": "[Example 48, (+)-METHYL 4-(3,10-DIBROMO-8-CHLORO-6,11-DIHYDRO-5H-BENZO[5,6]CYCLO-HEPTA[1,2-b]PYRIDIN-11(R)-YL)-GAMMA-OXO-1-PI[…]]", "values": [
      {"measurement": "IC50", "setting": "[1]", "value": 9, "unit": "nM"}
    ]},
    {"smiles": "CN(C)CCCCC(=O)N1CCC(C2c3ncc(Br)cc3CCc3cc(Cl)cc(Cl)c32)CC1", "note": "(single isomer, unassigned) [Example 7]", "values": [
      {"measurement": "IC50", "setting": "[2]", "value": 22, "unit": "nM"}
    ]},
    {"smiles": "O=C(CCN1CCCCC1)N1CCC(C2c3ncc(Br)cc3CCc3cc(Cl)cc(Cl)c32)CC1", "note": "(single isomer, unassigned) [Example 9]", "values": [
      {"measurement": "IC50", "setting": "[2]", "value": 6, "unit": "nM"}
    ]},
    {"smiles": "O=C(O)CCCC(=O)N1CCC([C@H]2c3ncc(Br)cc3CCc3cc(Cl)cc(Br)c32)CC1", "note": "[Example 52, (+)-SODIUM 4-(3,10-DIBROMO-8-CHLORO-6,11-DIHYDRO-5H-BENZO[5,6]CYCLO-HEPTA[1,2-b]PYRIDlN-11(R)-YL)-DELTA-OXO-1-PI[…]]", "values": [
      {"measurement": "IC50", "setting": "[1]", "value": 44, "unit": "nM"}
    ]},
    {"smiles": "CN(C)CCCC(=O)N1CCC(C2c3ncc(Br)cc3CCc3cc(Cl)cc(Cl)c32)CC1", "note": "(single isomer, unassigned) [Example 6]", "values": [
      {"measurement": "IC50", "value": 6.5, "unit": "nM"}
    ]},
    {"smiles": "NCCCC(=O)N1CCC(C2c3ncc(Br)cc3CCc3cc(Cl)cc(Cl)c32)CC1", "note": "(single isomer, unassigned; (+)) [Example 27, (+)-1-(4-AMINO-1-OXOBUTYL)-4-(3-BROMO-8,10-DICHLORO-6,11-DIHYDRO-5H-BENZO[5,6]CYCLO-HEPTA[1,2-b]PYRIDIN-11-YL) PIPERIDINE]", "values": [
      {"measurement": "IC50", "setting": "[2]", "value": 130, "unit": "nM"}
    ]},
    {"smiles": "COC(=O)CCCCC(=O)N1CCC([C@H]2c3ncc(Br)cc3CCc3cc(Cl)cc(Br)c32)CC1", "note": "[Example 54, (+)-METHYL 4-(3,10-DIBROMO-8-CHLORO-6,11-DIHYDRO-5H-BENZO[5,6]CYCLO-HEPTA[1,2-b]PYRIDIN-11(R)-YL)-EPSILON-OXO -1-PIPERIDININE HEXANOATE]", "values": [
      {"measurement": "IC50", "setting": "[2]", "value": 15, "unit": "nM"}
    ]},
    {"smiles": "CCN(CC)CCC(=O)N1CCC(C2c3ncc(Br)cc3CCc3cc(Cl)cc(Cl)c32)CC1", "note": "(single isomer, unassigned) [Example 8]", "values": [
      {"measurement": "IC50", "setting": "[2]", "value": 14, "unit": "nM"}
    ]},
    {"smiles": "O=C(CCN1C(=O)CCC1=O)N1CCC(C2c3ncc(Br)cc3CCc3cc(Cl)cc(Cl)c32)CC1", "note": "(single isomer, unassigned) [Example 11]", "values": [
      {"measurement": "IC50", "setting": "[2]", "value": 76, "unit": "nM"}
    ]},
    {"smiles": "O=C(CCCN1C(=O)c2ccncc2C1=O)N1CCC(C2c3ncc(Br)cc3CCc3cc(Cl)cc(Cl)c32)CC1", "note": "(single isomer, unassigned) [Example 33, 4-(8,10-DICHLORO-3-BROMO-6,11-DIHYDRO-5H-BENZO[5,6]CYCLO-HEPTA[1,2-b]PYRIDIN-11-YL)-1-[4-(1,3-DIHYDRO-1,3-DIOXO-2H-PYRROLO-[3,4c]-PYRIDINE-2-YL)-1-OXOBUTYL]PIPERIDINE]", "values": [
      {"measurement": "inhibition at 0.0934 µM", "setting": "read-out: FPT inhibition (percent inhibition)", "value": 38.7, "unit": "%"}
    ]}
  ]
}
